# Measured values from ChEMBL document CHEMBL1201862, “PubChem BioAssay data set” (2004).
#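 Where inhibition never reached the appropriate level, the endpoint shown equals the highest concentration tested. Otherwise, values were interpolated linearly from a five-concentration, 48-hour dose response in 96-well plates. The concentration for 50% growth inhibition is given as GI50.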 Active and inactive are the calls of the source. Cut-off read from the data, not from the text of the source: active = GI50 up to about 1.1 µM and inactive = higher. Where a SMILES comes first, the peptide text is derived from it. The star is where a group is joined. Fmoc = O=C(OCC1c2ccccc2-c2ccccc21)*; OBn = c1ccc(CO*)cc1; tBu = CC(C)(C)*
# Legend:
# Experiment in all cases: NCI-60 cell line screen, 48 h
# 786-0 = test system: 786-0
# A498 = test system: A498
# A549 = test system: A549
# ACHN = test system: ACHN
# BT-549 = test system: BT-549
# CAKI-1 = test system: CAKI-1
# CCRF-CEM = test system: CCRF-CEM
# COLO 205 = test system: COLO 205
# DU-145 = test system: DU-145
# EKVX = test system: EKVX
# HCC 2998 = test system: HCC 2998
# HCT-116 = test system: HCT-116
# HCT-15 = test system: HCT-15
# HL-60 = test system: HL-60
# HOP-62 = test system: HOP-62
# HOP-92 = test system: HOP-92
# HT-29 = test system: HT-29
# Hs-578T = test system: Hs-578T
# IGROV-1 = test system: IGROV-1
# K562 = test system: K562
# KM12 = test system: KM12
# LOX IMVI = test system: LOX IMVI
# M14 = test system: M14
# MCF7 = test system: MCF7
# MDA-MB-231 = test system: MDA-MB-231
# MDA-MB-435 = test system: MDA-MB-435
# MDA-N = test system: MDA-N
# MOLT-4 = test system: MOLT-4
# Malme-3M = test system: Malme-3M
# NCI-H226 = test system: NCI-H226
# NCI-H23 = test system: NCI-H23
# NCI-H460 = test system: NCI-H460
# NCI-H522 = test system: NCI-H522
# NCI/ADR-RES = test system: NCI/ADR-RES
# OVCAR-3 = test system: OVCAR-3
# OVCAR-4 = test system: OVCAR-4
# OVCAR-5 = test system: OVCAR-5
# OVCAR-8 = test system: OVCAR-8
# PC-3 = test system: PC-3
# RPMI-8226 = test system: RPMI-8226
# RXF 393 = test system: RXF 393
# SF-268 = test system: SF-268
# SF-295 = test system: SF-295
# SF-539 = test system: SF-539
# SK-MEL-28 = test system: SK-MEL-28
# SK-MEL-2 = test system: SK-MEL-2
# SK-MEL-5 = test system: SK-MEL-5
# SK-OV-3 = test system: SK-OV-3
# SN12C = test system: SN12C
# SNB-19 = test system: SNB-19
# SNB-75 = test system: SNB-75
# SR = test system: SR
# SW-620 = test system: SW-620
# T47D = test system: T47D
# TK-10 = test system: TK-10
# U-251 = test system: U-251
# UACC-257 = test system: UACC-257
# UACC-62 = test system: UACC-62
# UO-31 = test system: UO-31
compound,measurement,setting,value
CC(OC(C)(C)C)C(NC(=O)OCC1c2ccccc2-c2ccccc21)C(=O)NC(Cc1ccccc1)C(=O)OCc1ccccc1 (stereo not drawn) (Fmoc-Thr(tBu)-Phe-OBn; configuration not given here),GI50,786-0,> 100 µM (inactive)
same,GI50,A498,> 100 µM (inactive)
same,GI50,A549,> 100 µM (inactive)
same,GI50,ACHN,> 100 µM (inactive)
same,GI50,BT-549,> 100 µM (inactive)
same,GI50,CAKI-1,> 100 µM (inactive)
same,GI50,CCRF-CEM,> 100 µM (inactive)
same,GI50,COLO 205,> 100 µM (inactive)
same,GI50,DU-145,> 100 µM (inactive)
same,GI50,EKVX,> 100 µM (inactive)
same,GI50,HCC 2998,> 100 µM (inactive)
same,GI50,HCT-116,> 100 µM (inactive)
same,GI50,HCT-15,> 100 µM
same,GI50,HL-60,> 100 µM (inactive)
same,GI50,HOP-62,> 93.8 µM (inactive)
same,GI50,HOP-92,> 21.2 µM (inactive)
same,GI50,HT-29,> 100 µM (inactive)
same,GI50,Hs-578T,> 100 µM (inactive)
same,GI50,IGROV-1,> 100 µM (inactive)
same,GI50,K562,> 100 µM (inactive)
same,GI50,KM12,> 100 µM (inactive)
same,GI50,LOX IMVI,> 100 µM (inactive)
same,GI50,M14,> 100 µM (inactive)
same,GI50,MCF7,> 100 µM (inactive)
same,GI50,MDA-MB-231,> 48.4 µM (inactive)
same,GI50,MDA-MB-435,> 100 µM (inactive)
same,GI50,MDA-N,> 100 µM (inactive)
same,GI50,MOLT-4,> 61.9 µM (inactive)
same,GI50,Malme-3M,> 100 µM (inactive)
same,GI50,NCI-H226,> 100 µM (inactive)
same,GI50,NCI-H23,> 100 µM (inactive)
same,GI50,NCI-H460,> 100 µM (inactive)
same,GI50,NCI-H522,> 100 µM (inactive)
same,GI50,NCI/ADR-RES,> 100 µM (inactive)
same,GI50,OVCAR-3,> 100 µM (inactive)
same,GI50,OVCAR-4,> 100 µM (inactive)
same,GI50,OVCAR-5,> 100 µM (inactive)
same,GI50,OVCAR-8,> 100 µM (inactive)
same,GI50,PC-3,> 100 µM (inactive)
same,GI50,RPMI-8226,> 71.8 µM (inactive)
same,GI50,RXF 393,> 100 µM (inactive)
same,GI50,SF-268,> 100 µM (inactive)
same,GI50,SF-295,> 100 µM (inactive)
same,GI50,SF-539,> 100 µM (inactive)
same,GI50,SK-MEL-28,> 100 µM (inactive)
same,GI50,SK-MEL-2,> 100 µM (inactive)
same,GI50,SK-MEL-5,> 100 µM (inactive)
same,GI50,SK-OV-3,> 100 µM (inactive)
same,GI50,SN12C,> 100 µM (inactive)
same,GI50,SNB-19,> 100 µM (inactive)
same,GI50,SNB-75,> 100 µM (inactive)
same,GI50,SR,> 87.9 µM (inactive)
same,GI50,SW-620,> 100 µM (inactive)
same,GI50,T47D,> 76.7 µM (inactive)
same,GI50,TK-10,> 100 µM (inactive)
same,GI50,U-251,> 100 µM (inactive)
same,GI50,UACC-257,> 100 µM (inactive)
same,GI50,UACC-62,> 100 µM (inactive)
same,GI50,UO-31,> 46.6 µM (inactive)
CC1=Nn2c(nc3sc4c(c3c2=O)CCCC4)SC1,GI50,786-0,> 81.3 µM (inactive)
same,GI50,A498,> 50.1 µM (inactive)
same,GI50,A549,> 83.6 µM (inactive)
same,GI50,ACHN,> 51.6 µM (inactive)
same,GI50,BT-549,31.5 µM (inactive)
same,GI50,CAKI-1,> 100 µM (inactive)
same,GI50,CCRF-CEM,35.3 µM (inactive)
same,GI50,COLO 205,> 87.9 µM (inactive)
same,GI50,DU-145,> 86.1 µM (inactive)
same,GI50,EKVX,> 69.5 µM (inactive)
same,GI50,HCC 2998,99.5 µM (inactive)
same,GI50,HCT-116,82 µM (inactive)
same,GI50,HCT-15,52.6 µM
same,GI50,HL-60,34.8 µM (inactive)
same,GI50,HOP-62,> 100 µM (inactive)
same,GI50,HOP-92,36.1 µM (inactive)
same,GI50,HT-29,> 88.7 µM (inactive)
same,GI50,Hs-578T,> 90.4 µM (inactive)
same,GI50,IGROV-1,> 76.4 µM (inactive)
same,GI50,K562,39.9 µM (inactive)
same,GI50,KM12,> 83.9 µM (inactive)
same,GI50,LOX IMVI,21.4 µM (inactive)
same,GI50,M14,> 100 µM (inactive)
same,GI50,MCF7,> 77.6 µM (inactive)
same,GI50,MDA-MB-231,> 50.4 µM (inactive)
same,GI50,MDA-MB-435,> 77.1 µM (inactive)
same,GI50,MDA-N,28.4 µM (inactive)
same,GI50,MOLT-4,44.2 µM (inactive)
same,GI50,Malme-3M,> 94.2 µM (inactive)
same,GI50,NCI-H226,> 100 µM (inactive)
same,GI50,NCI-H23,> 100 µM (inactive)
same,GI50,NCI-H460,48.2 µM (inactive)
same,GI50,NCI-H522,53.2 µM (inactive)
same,GI50,NCI/ADR-RES,98.6 µM (inactive)
same,GI50,OVCAR-3,76 µM (inactive)
same,GI50,OVCAR-4,71.3 µM (inactive)
same,GI50,OVCAR-5,> 100 µM (inactive)
same,GI50,OVCAR-8,> 100 µM (inactive)
same,GI50,PC-3,63 µM (inactive)
same,GI50,RPMI-8226,69.2 µM (inactive)
same,GI50,RXF 393,> 75.7 µM (inactive)
same,GI50,SF-268,> 58.1 µM (inactive)
same,GI50,SF-295,> 100 µM (inactive)
same,GI50,SF-539,> 48.6 µM (inactive)
same,GI50,SK-MEL-28,> 100 µM (inactive)
same,GI50,SK-MEL-2,> 100 µM (inactive)
same,GI50,SK-MEL-5,62.4 µM (inactive)
same,GI50,SK-OV-3,> 100 µM (inactive)
same,GI50,SN12C,> 78.5 µM (inactive)
same,GI50,SNB-19,90.2 µM (inactive)
same,GI50,SNB-75,64.9 µM (inactive)
same,GI50,SR,57 µM (inactive)
same,GI50,SW-620,> 57.8 µM (inactive)
same,GI50,T47D,58.5 µM (inactive)
same,GI50,TK-10,53.7 µM (inactive)
same,GI50,U-251,45.5 µM (inactive)
same,GI50,UACC-257,> 100 µM (inactive)
same,GI50,UACC-62,76.4 µM (inactive)
same,GI50,UO-31,37.8 µM (inactive)
